# In patent publication US20100099756A1, “USES OF INCENSOLE, INCENSOLE ACETATE AND DERIVATIVES THEREOF” (YISSUM RESEARCH DEVELOPMENT COMPANY OF THE HEBREW …, priority 2006, published 2010):
# Key:
# [1] = target: T1, mouse TRPV3-YFP (Mus musculus, UniProt Q8K424); experiment: Calcium imaging of HEK293 cells expressing mouse TRPV3-YFP; type: cell-based
# T1 construct: expressed in transfected cells
# T1 sequence (Q8K424 1-791): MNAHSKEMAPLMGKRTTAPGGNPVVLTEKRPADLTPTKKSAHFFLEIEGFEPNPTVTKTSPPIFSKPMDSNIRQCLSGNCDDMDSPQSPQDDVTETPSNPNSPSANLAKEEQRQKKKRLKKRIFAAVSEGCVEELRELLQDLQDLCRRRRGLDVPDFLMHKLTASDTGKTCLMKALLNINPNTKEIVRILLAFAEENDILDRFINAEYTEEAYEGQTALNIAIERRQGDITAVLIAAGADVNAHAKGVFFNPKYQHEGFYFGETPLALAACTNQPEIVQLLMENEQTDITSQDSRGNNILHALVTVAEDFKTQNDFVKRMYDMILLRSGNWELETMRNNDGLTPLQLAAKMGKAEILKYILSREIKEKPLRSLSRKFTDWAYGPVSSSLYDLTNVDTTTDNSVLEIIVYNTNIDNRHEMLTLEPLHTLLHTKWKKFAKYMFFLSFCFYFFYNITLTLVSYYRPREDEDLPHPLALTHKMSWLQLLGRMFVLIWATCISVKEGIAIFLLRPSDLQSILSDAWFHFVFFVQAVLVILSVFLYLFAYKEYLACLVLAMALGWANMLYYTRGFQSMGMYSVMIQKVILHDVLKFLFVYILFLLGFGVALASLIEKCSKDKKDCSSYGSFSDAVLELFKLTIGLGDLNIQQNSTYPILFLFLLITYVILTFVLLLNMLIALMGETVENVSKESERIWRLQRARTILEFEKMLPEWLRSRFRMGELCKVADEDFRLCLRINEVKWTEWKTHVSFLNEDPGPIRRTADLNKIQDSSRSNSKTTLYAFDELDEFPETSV
# Procedure: All error bars indicate SEM; p values in all subfigures but c represent analysis with one-way ANOVA Bonferroni's post hoc.
# TRPV3-YFP [O'dell, D. K., Rimmerman, N., Pickens, S. R. & Walker J. M. Fatty acyl amides of endogenous tetrahydroisoquinolines are active at the recombinant human TRPV1 receptor. […] Med. Chem. 15, 6164-6169 (2007)], TRPV4 and mock-transfected cell lines were cultured in DMEM 1× with L-glutamine (Mediatech, Inc. Herndon, Va.), containing 1% penicillin-streptomycin (Invitrogen, Carlsbad, Calif.) and 10% foetal bovine serum.
# Calcium imaging of HEK 293 cells. TRPV1, TRPV3, and TRPV4 expressing HEK293 cells were plated 24-48 h before imaging in 96 well plates, loaded with 3 μM Fura-2 AM and imaged as previously described [O'dell, D. K., Rimmerman, N., Pickens, S. R. & Walker J. M. Fatty acyl amides of endogenous tetrahydroisoquinolines are active at the recombinant human TRPV1 receptor. […] Med. Chem. 15, 6164-6169 (2007)].
# For single cell calcium imaging, HEK293-rat TRPV2 and HEK293-mouse TRPV3-YFP expressing cells were plated on collagen-coated glass cover slips. Cells were loaded for 60 min with 3 μM Fura-2 AM.
# Data analysis of calcium imaging data. Analysis of calcium imaging data was done using a non-linear regression curve fit (Graphpad 4 Prism, San Diego, Calif.). t tests and one way ANOVA were calculated using SPSS (Chicago, Ill.). In the keratinocyte experiments, drug-induced response for each cell was taken as the maximal post-drug measurements over time minus the average of the last 5 pre-drug measurements. Averaged drug responses over 30 randomly selected cells per coverslip were analyzed with two-tailed unpaired t tests.
# [2] = target: T2, TRPV3 (Mus musculus, UniProt Q8K424); experiment: Calcium imaging of TRPV3+/+ and TRPV3−/− primary keratinocytes; type: cell-based; parameters: endogenous in cells; host or cells: primary keratinocytes from TRPV3+/+ mouse pups (day 1-4); TRPV3-/- cells as control; conditions: IA 500 μM
# T2 sequence (Q8K424 1-791): T1 sequence (Q8K424 1-791)
# Source text: HEK293 cells were transiently transfected with a rat TRPV2 plasmid using lipofectamine reagent (Invitrogen, Carlsbad, Calif.) according to manufacturer's protocol. They were then maintained in Dulbecco's modified Eagle Medium/10% fetal calf serum supplemented with Penicillin, Streptomycin, and L-glutamine. Primary keratinocytes from TRPV3-deficient and TRPV3+/+ mouse pups (day 1-4) were harvested and cultured as described previously [Chung, M. K., Lee, H., Mizuno, A., Suzuki, M. & Caterina, M. J. TRPV3 and TRPV4 mediate warmth-evoked currents in primary mouse keratinocytes. J. Biol. Chem. 279, 21569-21575 (2004)].
# Calcium imaging of TRPV3^+/+ and TRPV3^−/− keratinocytes. Primary keratinocytes from TRPV3-deficient and WT mouse pups (day 1-4) were harvested and cultured as described [Chung, M. K., Lee, H., Mizuno, A., Suzuki, M. & Caterina, M. J. TRPV3 and TRPV4 mediate warmth-evoked currents in primary mouse keratinocytes. J. Biol. Chem. 279, 21569-21575 (2004)].
# Cells were plated on glass coverslips (10^5/cm^2) and incubated for 48-60 h, then loaded with fura-2 AM (20 μM, 0.04% pleuronic acid, 32° C. for 1 h) in imaging buffer containing (in mM): 130 NaCl, 2.5 CaCl2, 0.6 MgCl2, 10 HEPES, 1.2 NaHCO3, 10 glucose, pH 7.45. Ratiometric Ca^2+ imaging was performed as previously described [O'dell, D. K., Rimmerman, N., Pickens, S. R. & Walker J. M. Fatty acyl amides of endogenous tetrahydroisoquinolines are active at the recombinant human TRPV1 receptor. Bioorg. Med. Chem. 15, 6164-6169 (2007)]. Drug was added to the bath following a period of baseline recording. Calcium measurements were made from 30 randomly selected cells per coverslip.
# Data analysis of calcium imaging data. Analysis of calcium imaging data was done using a non-linear regression curve fit (Graphpad 4 Prism, San Diego, Calif.). t tests and one way ANOVA were calculated using SPSS (Chicago, Ill.). […] Averaged drug responses over 30 randomly selected cells per coverslip were analyzed with two-tailed unpaired t tests.
smiles,measurement,setting,value
"CC(=O)OC1CC/C(C)=C/CC/C(C)=C/CC2(C(C)C)CCC1(C)O2 (stereo not drawn) [IA, incensole acetate]",calcium influx vs vehicle,"[1]; IA 100 μM, 2-APB positive control",significantly increased calcium influx
same,calcium influx Hill slope,[1]; calcium in the extracellular media,2.2
same,EC50,"[1]; calcium in the extracellular media, read-out: calcium influx EC50",16 µM
same,calcium increase with calcium removed from the extracellular medium,[1]; no extracellular calcium,significantly reduced
same,calcium influx in primary keratinocytes from TRPV3−/− mice,[2],not from TRPV3
same,calcium influx in primary keratinocytes from WT mice,[2]; camphor 10 mM,induced a calcium influx
